ChEMBL document CHEMBL1147434, “Synthesis and biological results of the technetium-99m-labeled 4-nitroimidazole for imaging tumor hypoxia” (Bioorg Med Chem Lett, 2004)

Key:
Format in all cases: ADME, organism-based
Mus musculus [1] = assay: In vivo biodistribution of radiolabeled [99mTc]N4IPA in mice brain bearing S180 tumor cell line for 8 hours; conditions: ccrf s-180, 8 h
Mus musculus [2] = assay: In vivo biodistribution of radiolabeled [99mTc]-N4IPA in mice tumor/heart bearing S180 tumor cell line for 8 hours; conditions: ccrf s-180, 8 h
Mus musculus [3] = assay: In vivo biodistribution of radiolabeled [99mTc]N4IPA in mice liver bearing S180 tumor cell line for 2 hours; conditions: ccrf s-180, 2 h
Mus musculus [4] = assay: In vivo biodistribution of radiolabeled [99mTc]-N4IPA in mice tumor/lung bearing S180 tumor cell line for 4 hours; conditions: ccrf s-180, 4 h
Mus musculus [5] = assay: In vivo biodistribution of radiolabeled [99mTc]-N4IPA in mice blood bearing S180 tumor cell line for 1 hour; conditions: ccrf s-180, 1 h
Mus musculus [6] = assay: In vivo biodistribution of radiolabeled [99mTc]-N4IPA in mice tumor/muscle bearing S180 tumor cell line for 2 hours; conditions: ccrf s-180, 2 h
Mus musculus [7] = assay: In vivo biodistribution of radiolabeled [99mTc]N4IPA in mice heart bearing S180 tumor cell line for 4 hours; conditions: ccrf s-180, 4 h
Mus musculus [8] = assay: In vivo biodistribution of radiolabeled [99mTc]-N4IPA in mice kidney bearing S180 tumor cell line for 4 hours; conditions: ccrf s-180, 4 h
Mus musculus [9] = assay: In vivo biodistribution of radiolabeled [99mTc]-N4IPA in mice tumor/liver bearing S180 tumor cell line for 4 hours; conditions: ccrf s-180, 4 h
Mus musculus [10] = assay: In vivo biodistribution of radiolabeled [99mTc]N4IPA in mice brain bearing S180 tumor cell line for 30 minutes; conditions: ccrf s-180, 0.5 h
Mus musculus [11] = assay: In vivo biodistribution of radiolabeled [99mTc]-N4IPA in mice lung bearing S180 tumor cell line for 1 hour; conditions: ccrf s-180, 1 h
Mus musculus [12] = assay: In vivo biodistribution of radiolabeled [99mTc]-N4IPA in mice tumor bearing S180 tumor cell line for 4 hours; conditions: ccrf s-180, 4 h
Mus musculus [13] = assay: In vivo biodistribution of radiolabeled [99mTc]N4IPA in mice tumor/muscle bearing S180 tumor cell line for 30 minutes; conditions: ccrf s-180, 0.5 h
Mus musculus [14] = assay: In vivo biodistribution of radiolabeled [99mTc]-N4IPA in mice tumor/liver bearing S180 tumor cell line for 1 hour; conditions: ccrf s-180, 1 h
Mus musculus [15] = assay: In vivo biodistribution of radiolabeled [99mTc]-N4IPA in mice tumor/lung bearing S180 tumor cell line for 1 hour; conditions: ccrf s-180, 1 h
Mus musculus [16] = assay: In vivo biodistribution of radiolabeled [99mTc]-N4IPA in mice kidney bearing S180 tumor cell line for 30 minutes; conditions: ccrf s-180, 0.5 h
Mus musculus [17] = assay: In vivo biodistribution of radiolabeled [99mTc]N4IPA in mice tumor/liver bearing S180 tumor cell line for 30 minutes; conditions: ccrf s-180, 0.5 h
Mus musculus [18] = assay: In vivo biodistribution of radiolabeled [99mTc]N4IPA in mice kidney bearing S180 tumor cell line for 1 hour; conditions: ccrf s-180, 1 h
Mus musculus [19] = assay: In vivo biodistribution of radiolabeled [99mTc]N4IPA in mice tumor/heart bearing S180 tumor cell line for 2 hours; conditions: ccrf s-180, 2 h
Mus musculus [20] = assay: In vivo biodistribution of radiolabeled [99mTc]N4IPA in mice tumor/heart bearing S180 tumor cell line for 1 hour; conditions: ccrf s-180, 1 h
Mus musculus [21] = assay: In vivo biodistribution of radiolabeled [99mTc]N4IPA in mice tumor/blood bearing S180 tumor cell line for 8 hours; conditions: ccrf s-180, 8 h
Mus musculus [22] = assay: In vivo biodistribution of radiolabeled [99mTc]-N4IPA in mice spleen bearing S180 tumor cell line for 4 hours; conditions: ccrf s-180, 4 h
Mus musculus [23] = assay: In vivo biodistribution of radiolabeled [99mTc]N4IPA in mice tumor/liver bearing S180 tumor cell line for 2 hours; conditions: ccrf s-180, 2 h
Mus musculus [24] = assay: In vivo biodistribution of radiolabeled [99mTc]N4IPA in mice heart bearing S180 tumor cell line for 2 hours; conditions: ccrf s-180, 2 h
Mus musculus [25] = assay: In vivo biodistribution of radiolabeled [99mTc]-N4IPA in mice muscle bearing S180 tumor cell line for 8 hours; conditions: ccrf s-180, 8 h
Mus musculus [26] = assay: In vivo biodistribution of radiolabeled [99mTc]N4IPA in mice liver bearing S180 tumor cell line for 1 hour; conditions: ccrf s-180, 1 h
Mus musculus [27] = assay: In vivo biodistribution of radiolabeled [99mTc]N4IPA in mice brain bearing S180 tumor cell line for 2 hours; conditions: ccrf s-180, 2 h
Mus musculus [28] = assay: In vivo biodistribution of radiolabeled [99mTc]-N4IPA in mice tumor/lung bearing S180 tumor cell line for 8 hours; conditions: ccrf s-180, 8 h
Mus musculus [29] = assay: In vivo biodistribution of radiolabeled [99mTc]-N4IPA in mice tumor/heart bearing S180 tumor cell line for 4 hours; conditions: ccrf s-180, 4 h
Mus musculus [30] = assay: In vivo biodistribution of radiolabeled [99mTc]-N4IPA in mice muscle bearing S180 tumor cell line for 4 hours; conditions: ccrf s-180, 4 h
Mus musculus [31] = assay: In vivo biodistribution of radiolabeled [99mTc]N4IPA in mice heart bearing S180 tumor cell line for 8 hours; conditions: ccrf s-180, 8 h
Mus musculus [32] = assay: In vivo biodistribution of radiolabeled [99mTc]-N4IPA in mice spleen bearing S180 tumor cell line for 8 hours; conditions: ccrf s-180, 8 h
Mus musculus [33] = assay: In vivo biodistribution of radiolabeled [99mTc]N4IPA in mice tumor bearing S180 tumor cell line for 2 hours; conditions: ccrf s-180, 2 h
Mus musculus [34] = assay: In vivo biodistribution of radiolabeled [99mTc]N4IPA in mice tumor/blood bearing S180 tumor cell line for 30 minutes; conditions: ccrf s-180, 0.5 h
Mus musculus [35] = assay: In vivo biodistribution of radiolabeled [99mTc]N4IPA in mice tumor bearing S180 tumor cell line for 8 hours; conditions: ccrf s-180, 8 h

N/C(CCn1cnc([N+](=O)[O-])c1)=N\O
Biodistribution (Mus musculus [1]): 0.04 % g-1
Biodistribution (Mus musculus [2]): 5.39 % g-1
Biodistribution (Mus musculus [3]): 0.46 % g-1
Biodistribution (Mus musculus [4]): 2.94 % g-1
Biodistribution (Mus musculus [5]): 0.28 % g-1
Biodistribution (Mus musculus [6]): 8.12 % g-1
Biodistribution (Mus musculus [7]): 0.08 % g-1
Biodistribution (Mus musculus [8]): 3.14 % g-1
Biodistribution (Mus musculus [9]): 0.88 % g-1
Biodistribution (Mus musculus [10]): 0.04 % g-1
Biodistribution (Mus musculus [11]): 0.22 % g-1
Biodistribution (Mus musculus [12]): 0.34 % g-1
Biodistribution (Mus musculus [13]): 3.66 % g-1
Biodistribution (Mus musculus [14]): 0.57 % g-1
Biodistribution (Mus musculus [15]): 2.06 % g-1
Biodistribution (Mus musculus [16]): 5.63 % g-1
Biodistribution (Mus musculus [17]): 0.56 % g-1
Biodistribution (Mus musculus [18]): 5.44 % g-1
Biodistribution (Mus musculus [19]): 3.39 % g-1
Biodistribution (Mus musculus [20]): 3.22 % g-1
Biodistribution (Mus musculus [21]): 2.06 % g-1
Biodistribution (Mus musculus [22]): 0.08 % g-1
Biodistribution (Mus musculus [23]): 0.85 % g-1
Biodistribution (Mus musculus [24]): 0.12 % g-1
Biodistribution (Mus musculus [25]): 0.04 % g-1
Biodistribution (Mus musculus [26]): 0.79 % g-1
Biodistribution (Mus musculus [27]): 0.04 % g-1
Biodistribution (Mus musculus [28]): 3.09 % g-1
Biodistribution (Mus musculus [29]): 4.47 % g-1
Biodistribution (Mus musculus [30]): 0.04 % g-1
Biodistribution (Mus musculus [31]): 0.06 % g-1
Biodistribution (Mus musculus [32]): 0.06 % g-1
Biodistribution (Mus musculus [33]): 0.39 % g-1
Biodistribution (Mus musculus [34]): 0.78 % g-1
Biodistribution (Mus musculus [35]): 0.32 % g-1
